Assay [1] addresses CaMKIIδ (Homo sapiens, UniProt Q13557). To be noted: cited from earlier work.
Assay [2] has as its system ovalbumin-sensitized C6B2 mice (asthma model). Kind of assay: Ovalbumin-sensitized mouse asthma model, intranasal KN-93. The format is in vivo. To be noted: for airway resistance (Flexivent) on Methacholine challenge: KN93 100 mM intranasal during ovalbumin inhalations, at 50 and 100 μg/ml Methacholine, p<0.05, vs untreated; for Bronchoalveolar lavage eosinophils: KN93 intranasal, compared with untreated control mice. The method, then: FIG. 4. Effects of inhaled KN-93 on asthma. (A) C6B2 mice were sensitized by two i.p. injections of ovalbumin, followed by three 30 min inhalations of ovalbumin in the presence or absence of the CaMKII inhibitor KN93 (100 μM) intranasal. Airway reactivity was determined by Methacholine challenge using the Flexivent-measured airway resistance as the readout. (B) Bronchoalveolar lavage eosinophils in mice treated with KN 93 compared with untreated control mice.
In order to test the concept that CaMKII inhibition can reduce asthma symptoms, a validated asthma model was utilized. This model induces airway inflammation and hyper-reactivity by intra-peritoneal sensitization and inhalational challenge with the experimental allergen, ovalbumin. The “asthmatic” mice are then characterized by a graded inhalational challenge protocol using aerosolized methacholine. (See Jain et al., 2003). This approach is similar to that used in humans with clinical asthma.
C6B2 mice were sensitized by two i.p. injections of ovalbumin, followed by three 30 min inhalations of ovalbumin in the presence or absence of the CaMKII inhibitor KN93 (100 mM) intranasal. Airway reactivity was determined by Methacholine challenge using the Flexivent-measured airway resistance as the readout. […] (* p<0.05, n=4 per group) (FIG. 4A). Bronchoalveolar lavage eosinophils (a measure of allergic airway inflammation) were reduced in mice treated with KN 93 compared with untreated control mice (FIG. 4B).

The structures appear in SMILES notation. Where two headings read alike, the source gives them in different places.

CaMKIIδ, sequence (Q13557 whole entry): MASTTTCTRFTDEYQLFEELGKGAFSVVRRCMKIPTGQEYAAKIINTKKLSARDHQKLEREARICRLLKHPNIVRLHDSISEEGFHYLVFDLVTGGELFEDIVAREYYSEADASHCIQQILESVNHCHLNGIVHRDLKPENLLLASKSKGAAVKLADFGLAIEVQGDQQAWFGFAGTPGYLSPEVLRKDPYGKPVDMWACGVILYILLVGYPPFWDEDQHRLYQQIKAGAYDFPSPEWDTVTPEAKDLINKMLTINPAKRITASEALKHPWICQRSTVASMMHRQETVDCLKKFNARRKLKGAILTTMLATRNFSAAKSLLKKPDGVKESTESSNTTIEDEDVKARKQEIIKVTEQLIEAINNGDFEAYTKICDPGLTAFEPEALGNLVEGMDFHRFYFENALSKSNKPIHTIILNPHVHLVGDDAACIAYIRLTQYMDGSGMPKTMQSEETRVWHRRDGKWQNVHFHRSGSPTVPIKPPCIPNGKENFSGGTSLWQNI

Regarding `NCCCn1cc(C2=C(c3ccc4ccccc4n3)C(=O)NC2=O)c2ccccc21` [Compound 14f], in assay [1], the IC50 (usually the point on the concentration scale where inhibition reaches its midpoint) was above 20 µM. For `CN1C(=O)C(c2c[nH]c3ccc(Br)cc23)=C(c2cn(CCCN)c3ccccc23)C1=O` [Compound 16t], in assay [1], the IC50 was above 20 µM. Consider `NCCCn1cc(C2=C(c3csc4ccccc34)C(=O)NC2=O)c2ccccc21` [Compound 2], for which, in assay [1] (old, read-out: IC50 (μM) old), the IC50 is below 0.039 µM. Take `CC(C)(C)OC(=O)NCCCn1cc(C2=C(c3ccccc3)C(=O)NC2=O)c2ccccc21` [Compound 13g]: in assay [1], the concentration for half-maximal inhibition (IC50) is above 20 µM. Regarding `COc1ccc(S(=O)(=O)N(CCO)c2ccccc2CN(C)C/C=C/c2ccc(Cl)cc2)cc1` [KN-93], the results for the “airway resistance (Flexivent) on Methacholine challenge” value in assay [2] and in assay [2] (listed as KN93) were “reduced airway resistance measurements” and “significant reduction”, respectively. Moreover, the Bronchoalveolar lavage eosinophils result was “reduced eosinophils” in assay [2] and “reduced” in assay [2] (listed as KN 93).

Turning to `CC(C)(C)OC(=O)NCCCn1cc(C2=C(c3csc4ccccc34)C(=O)NC2=O)c2ccccc21` [Compound 13b], the IC50 in assay [1] is above 20 µM. On to `CC(C)(C)OC(=O)NCCCn1cc(C2=C(c3cccs3)C(=O)NC2=O)c2ccccc21` [Compound 13l], for which the IC50 in assay [1] is above 20 µM.

The values above are taken from US8440656B2, “Methods of treating pulmonary diseases and disorders by modulating calcium/calmodulin dependent protein kinase II activity” (University of Iowa Research Foundation, priority 2009, dated 2013).
